What was measured:
Aβ1-42 (SEQ ID NO: 11) = target: T1, Aβ1-42 (SEQ ID NO: 11) (Homo sapiens, UniProt P05067); experiment: Thioflavine T fluorescence assay of Aβ1-42 amyloid fibril formation (fibrillogenesis assay); format: biochemical
T1 construct: purchased BACHEM H-1368.1000
Procedure: The percentage of formed fibrils after 2 days incubation with 110 μM of Aβ1-42 (SEQ ID NO: 11) at 37° C. is represented versus the concentration of the peptides of the invention (in μM). 100% of formed fibrils correspond to the fibrils formed in presence of Aβ1-42 alone. Triangles represent data for pAntp (SEQ ID NO: 4) and squares represent data for pAntp-BSB1 (SEQ ID NO: 6). The percentage of formed fibrils for peptides of the invention is compared to that obtained for a known beta-sheet breaker, BSB1 of SEQ ID NO: 5 (Lozenges). Data are the result of three independent experiments in duplicate.
Amyloid formation can be quantitatively evaluated by the fluorescence emission of thioflavine T (ThT) bound to amyloid fibrils, as reported by Levine et al., 1993 and also Soto et al., 1995.
In this assay, peptides of the invention were solubilized in water at different concentration in small Eppendorff tubes and lyophilized.
Ab1-42 (a synthetic peptide with the same sequence as the one deposited in the amyloid plaques in Alzheimer's brain, SEQ ID NO: 11) was solubilized at the concentration of 1 mg/ml in 2 mM NaOH. Aliquots were lyophilized (storage −80° C.). Several aliquots of Ab1-42 at a concentration of 0.5 mg/ml ([…]) were prepared in 0.1M Tris, pH 7.4 and incubated for 2 or 5 days at 37° C. in the absence or in the presence of different concentrations of the pre-lyophilized peptides of the invention (ranged from […]). Thioflavin T was purchased from Sigma (T-3516). For example, 120 μg of Ab1-42 and mixed to 1 μl of DMSO and 239 μl of 0.1M Tris, pH 7.4. From this solution, 120 μl are incubated 5 days at 37° C. and 120 μl are used to solubilize the peptide of the invention at the desired concentration and incubated 5 days at 37° C.
At the end of the incubation period, 50 mM Glycine, pH 9.2 and 2 μM ThT are added to the incubated mixture described above in a final volume of […] (850 μl of pure water, 200 μl of 50 mM Glycine, pH 9.2 and 40 μl of Thioflavin T (1 mM in pure water) are added to 60 μl of sample.
Fluorescence is measured at excitation 435 nm and emission 485 nm in a Perkin Elmer, model LS50B fluorescence spectrometer. Measurements are carried out after the signal is stable for at least 1-2 min. The initial value of fluorescence represents the fluorescence obtained with Ab1-42 peptide alone (highest concentration of fibrils) representing 100% of formed fibrils.
The percentage of inhibition of Ab1-42 fibril formation induced by compounds of the invention can be calculated using an analytical method such as described in Soto et al., 1998.

PC12 cells = format: cell-based
Procedure: Amyloid fibrils are cytotoxic, inducing cell death by apoptosis (Levine et al., 1993). The ability of the compounds of the invention in preventing the amyloid formation can be evaluated by measuring the decrease in the amyloid fibrils cytotoxicity in a cell assay. Toxicity was measured by comparing the effects of samples of Ab1-42 (SEQ ID NO: 11) alone or of mixtures of Ab1-42 combined with the peptides of the invention, on the reduction of the redox active dye, 3-(4,5-dimethylthiazol-2-yl)-2,5-diphenyltetrazolium bromide (MTT) by PC12 cells. […] The cells are incubated for 24 h and thereafter the cellular viability was evaluated using the MTT kit (Kit I (MTT), No. 1 465 007 Roche, Mannheim, Germany). Levels of reduced MTT are determined by measuring the difference in absorbance at 595 and 650 nm using a microplate reader and the extend of cellular viability is then deduced Maximum fibril inhibition is obtained at a peptide concentration of 8 mM for the reference compound of SEQ ID NO: 5 in the fibrillogenesis assay described above. […] Cellular viability is then measured for peptides of the invention by adding the fibrillogenesis assay mixtures containing 1 mM of peptide of the invention (concentration where maximum fibril inhibition is obtained for peptides of the invention) to the PC12 cells after a 20-fold dilution. […]

T1 sequence (P05067 672-713): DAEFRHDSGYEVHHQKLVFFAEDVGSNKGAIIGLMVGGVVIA

Q: What does the source list for “SEQ ID NO: 5: known beta-sheet breaker BSB1 (WO 01/34631), reference peptide (Ac-LPFFD-NH2) [reference compound]”?
A: % Inhibition of amyloid fibrils (Aβ1-42 (SEQ ID NO: 11); 500 μM peptide, Ab1-42 0.5 mg/ml in 0.1M Tris pH 7.4, 37° C.): 15%; peptide concentration above which the % of fibrils reaches a plateau (Aβ1-42 (SEQ ID NO: 11); FIG. 1, 110 μM Aβ1-42, 37° C.): does not reach a plateau limit; peptide concentration at which maximum fibril inhibition is obtained (Aβ1-42 (SEQ ID NO: 11); fibrillogenesis assay): 8 mM

Q: CC[C@H](C)[C@H](NC(=O)[C@H](CCCCN)NC(=O)[C@@H](NC(=O)[C@H](CCC(N)=O)NC(=O)[C@@H](N)CCCNC(=N)N)[C@@H](C)CC)C(=O)N[C@@H](Cc1c[nH]c2ccccc12)C(=O)N[C@@H](Cc1ccccc1)C(=O)N[C@@H](CCC(N)=O)C(=O)N[C@@H](CC(N)=O)C(=O)N[C@@H](CCCNC(=N)N)C(=O)N[C@@H](CCCNC(=N)N)C(=O)N[C@@H](CCSC)C(=O)N[C@@H](CCCCN)C(=O)N[C@@H](Cc1c[nH]c2ccccc12)C(=O)N[C@@H](CCCCN)C(=O)N[C@@H](CCCCN)C(=O)N[C@@H](CC(C)C)C(=O)N1CCC[C@H]1C(=O)N[C@@H](Cc1ccccc1)C(=O)N[C@@H](Cc1ccccc1)C(=O)N[C@@H](CC(=O)O)C(N)=O [SEQ ID NO: 6] was tested. Which inhibition (Aβ1-42 (SEQ ID NO: 11); 500 μM peptide, Ab1-42 in 0.1M Tris pH 7.4, 37° C., read-out: % Inhibition of amyloid fibrils) did it give?
A: 57%

Q: And the “inhibition of the fibrillogenesis process (FIG. 1)” value (Aβ1-42 (SEQ ID NO: 11); 2 days incubation with 110 μM Aβ1-42 at 37° C.)?
A: high degree of inhibition

Q: What about the IC50 (Aβ1-42 (SEQ ID NO: 11); ThT fluorescence, Ab1-42 0.5 mg/ml, 37° C., read-out: IC50 (inhibition of Ab1-42 fibril formation)) of the same compound?
A: ~98 µM

Q: And the “inhibiting effect on beta-amyloid cellular toxicity compared with BSB1” value (PC12 cells; PC12 cells, MTT)?
A: higher inhibiting effect on the beta-amyloid cellular toxicity than the beta-sheet breaker itself

Q: And the “% cell viability” value (PC12 cells; rat, 24 h, 50 µM)?
A: 166%
